According to publication PMC8092843 (Journal of Virology, 2021):
Ends that are not written are not given here.

Target: HLA-A*02:01 molecule (UniProt P01899+P04439, D140Y/D185E/D98H/E176V/G131W/I119V/I121R/I166T/N151K/N90K/Q86G/Q94H/R138H/R169H)
Assay: cell-based
Assay type: binding, human
Conditions: not given

Sequence | EC50
GILFGVFTL [FMP58-66, reference compound] | 2.3 µM

Same assay, conditions: SD

Sequence | EC50
AIFYLITPV [pp1a-2785] | 5.1 ± 1.6 µM
ALLSDLQDL [pp1a-4183] | 42.4 ± 6.1 µM
ALNLGETFV [pp1a-702] | 40.7 ± 2.8 µM
CLHVVGPNV [pp1a-1114] | 62.9 ± 2.3 µM
CLLNRYFRL [pp1a-3798] | 81.6 ± 20.2 µM
FITESKPSV [pp1a-1214] | 122 ± 31.7 µM
FLAHIQWMV [pp1a-3122] | 6.9 ± 0.4 µM
FLALCADSI [pp1a-685] | 10.2 ± 0.5 µM
FLARGIVFM [pp1a-3753] | 71.2 ± 12.9 µM
FLGRYMSAL [pp1a-1642] | 124 ± 1.9 µM
FLLNKEMYL [pp1a-3183] | 12.9 ± 6.8 µM
FLNGSCGSV [pp1a-3403] | 18.7 ± 3.2 µM
FLRDGWEIV [pp1a-641] | 0.9 ± 0.1 µM
GLNDNLLEI [pp1a-445] | 6 ± 0.2 µM
GLVEVEKGV [pp1a-52] | 14.5 ± 4.9 µM
IIWFLLLSV [pp1a-2230] | 177 ± 6.3 µM
ILFTRFFYV [pp1a-2332] | 96.5 ± 14 µM
ILGTVSWNL [pp1a-1367] | 123 ± 11.3 µM
ILLLDQALV [pp1a-2569] | 9.6 ± 1.5 µM
ILTSLLVLV [pp1a-3587] | 8.3 ± 0.9 µM
IVAGGIVAI [pp1a-3047] | 50.5 ± 2.5 µM

Sequence | EC50
KLIEYTDFA [pp1a-2901] | 126 ± 2.5 µM
KLMPVCVET [pp1a-1387] | 174 ± 33.5 µM
KLNEEIAII [pp1a-468] | 56.2 ± 4.8 µM
KLWAQCVQL [pp1a-3886] | 27.2 ± 9.4 µM
KTLQPVSEL [pp1a-881] | 162 ± 28.3 µM
LLFLMSFTV [pp1a-3083] | 39.4 ± 0.9 µM
LLLTILTSL [pp1a-3583] | 63.8 ± 3.1 µM
LMWLIINLV [pp1a-2364] | 159 ± 42.8 µM
MLAKALRKV [pp1a-1312] | 95.2 ± 0.7 µM
MLFTMLRKL [pp1a-4032] | 166 ± 21.7 µM
NLAKHCLHV [pp1a-1109] | 38.5 ± 8.2 µM
QLFFSYFAV [pp1a-2348] | 146 ± 19.7 µM
QLMCQPILL [pp1a-2563] | 11.1 ± 1.8 µM
QLSLPVLQV [pp1a-15] | 79.4 ± 4.4 µM
RIMTWLDMV [pp1a-3662] | 76.5 ± 7.1 µM
SLINTLNDL [pp1a-1433] | 123 ± 11 µM
SLIYSTAAL [pp1a-2242] | 134 ± 7.6 µM
SLPGVFCGV [pp1a-3013] | 3.1 ± 0.2 µM
SLRVCVDTV [pp1a-1161] | 85.7 ± 1.9 µM
SMQNCVLKL [pp1a-3344] | 105 ± 2.2 µM
SMWALIISV [pp1a-3732] | 8.9 ± 0.4 µM

Sequence | EC50
TLGVLVPHV [pp1a-103] | 1.3 ± 0.2 µM
TLGVYDYLV [pp1a-3807] | 61.7 ± 8.7 µM
TLMNVLTLV [pp1a-3710] | 2 ± 0.4 µM
TLSEQLDFI [pp1a-214] | 2 ± 0.2 µM
TVYEKLKPV [pp1a-619] | 5.6 ± 0.7 µM
VINGDRWFL [pp1a-3475] | 85 ± 5.4 µM
VLLSMQGAV [pp1a-3917] | 112 ± 7.2 µM
VLLSVLQQL [pp1a-3871] | 44.9 ± 6 µM
VLSEARQHL [pp1a-38] | 76.8 ± 6.8 µM
VLVPHVGEI [pp1a-106] | 76 ± 2 µM
VMAYITGGV [pp1a-597] | 9.5 ± 0.9 µM
VMVELVAEL [pp1a-84] | 6.8 ± 0.3 µM
WLMWLIINL [pp1a-2363] | 103 ± 6.4 µM
WMVMFTPLV [pp1a-3128] | 9.8 ± 1.1 µM
YITGGVVQL [pp1a-600] | 48.5 ± 7.9 µM
YLASGGQPI [pp1a-4283] | 39.8 ± 6.2 µM
YLATALLTL [pp1a-1675] | 8.4 ± 0.2 µM
YLEGSVRVV [pp1a-2968] | 7.5 ± 0.1 µM
YLNSTNVTI [pp1a-2270] | 8.9 ± 0.3 µM
YLTNDVSFL [pp1a-3115] | 4.8 ± 0.3 µM
YMPYFFTLL [pp1a-2168] | 99 ± 2.4 µM
